According to PubChem BioAssay (NCI):
“And” between values parts separate entries of the source, which are not always exact repeats. Equal entries are not always repeated.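 96-well plates; 48 h exposure; 5 concentrations. Endpoints by linear interpolation between flanking doses. Not reached: highest tested concentration assigned. Abbreviation: GI50, concentration required for 50% inhibition of growth. TGI marks complete inhibition of growth.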

Assays:
Assay in all cases: NCI anticancer screen, dose series, 48 h
HOP-92 NSCLC = system: HOP-92 NSCLC
A498 renal = system: A498 renal
SN12C renal = system: SN12C renal
M14 melanoma = system: M14 melanoma
U251 CNS = system: U251 CNS
SR leukemia = system: SR leukemia
UACC-62 melanoma = system: UACC-62 melanoma
SK-MEL-2 melanoma = system: SK-MEL-2 melanoma
IGROV1 ovarian = system: IGROV1 ovarian
RPMI-8226 leukemia = system: RPMI-8226 leukemia

SMILES	TGI (HOP-92 NSCLC)	TGI (A498 renal)	TGI (SN12C renal) [µM]	TGI (M14 melanoma) [µM]	TGI (U251 CNS) [µM]	TGI (SR leukemia) [µM]	TGI (UACC-62 melanoma)	TGI (SK-MEL-2 melanoma) [µM]	TGI (IGROV1 ovarian) [µM]	TGI (RPMI-8226 leukemia) [µM]	GI50 (HOP-92 NSCLC) [µM]	GI50 (A498 renal) [µM]	GI50 (RPMI-8226 leukemia)	GI50 (SN12C renal) [µM]	GI50 (U251 CNS) [µM]	GI50 (UACC-62 melanoma) [µM]	GI50 (SK-MEL-2 melanoma) [µM]	GI50 (IGROV1 ovarian) [µM]	GI50 (M14 melanoma) [µM]	GI50 (SR leukemia) [µM]
CC1=C(C(=O)Nc2ccccc2C)C(c2ccccc2)C(C(=O)Nc2ccccc2C)=C(C)N1	41.2 µM	> 100 µM	> 100	> 100	> 100	42.5	> 100 µM	93	> 100											
O=C(c1ccccc1)C(c1ccccc1)C1(O)C(=O)Nc2c(Cl)cc(Cl)cc21 (centres undefined)	40 µM		> 100	37.9	96.6			33		38.8										
CCOC(=O)[C@@]1(C)C=C2O[C@@H]3OC4(CCCCC4)O[C@@H]3C2=C2C(O)=CC=C(O)[C@]21C(=O)OC	33.8 µM	> 68 µM	> 68	> 68	> 68		> 68 µM	> 68	> 68	> 68										
CCC[CH2][Sn-]([CH2]CCC)([CH2]CCC)[O]c1cc(Cl)c(Cl)cc1Cl	0.395 µM	0.609 µM	0.338		0.35		0.394 µM	1.86	0.379	0.853	0.106	0.22	0.137 µM	0.164	0.179	0.152	0.377	0.162		
Nn1c(-c2ccccc2)nc2ccc(Br)cc2c1=O	98 µM	> 100 µM	> 100	> 100	> 100		> 100 µM	> 100	> 100	> 100										
Cc1ccc(OCC(=O)N2N=C(c3ccccc3)CC2(O)c2ccccc2)cc1 (centres undefined)	> 100 µM		40.3	90	34.1	> 100	> 100 µM	> 100	> 100	> 100										
CC1=C(C(=O)Nc2c(C)cccc2C)C(c2ccc3c(c2)OCO3)C(C(=O)Nc2c(C)cccc2C)=C(C)N1			32.7	33.9	29.1	90.9	10.9 µM		28.5											
N#Cc1cn(C2OC(CO)C(O)C2O)c2ncnc(N)c12 (centres undefined)	0.665 µM and 0.182 µM	1.51 µM and 0.634 µM		21.9		> 100	0.156 µM and 0.0603 µM and 0.115 µM				0.000461	0.045	0.0303 µM and 0.045 µM and < 0.01 µM	< 0.0119	0.0276	< 0.0136		0.0266		
Cc1c2c(nn1-c1ccc(S(=O)(=O)NC(=S)Nc3ccccc3)cc1)-c1ccccc1CC2	> 50 µM		> 50	> 50	> 50	> 50	> 50 µM	> 50	> 50	42.4	> 50		15.5 µM	> 50	39.6	> 50	> 50	20.6	> 50	> 50
O=C1C(=O)N(C(=O)c2ccc(Cl)c(Cl)c2)c2ccccc21				> 100	> 100	> 100	> 100 µM		> 100	> 100										
COc1ccc(-c2nc3sc(C)cn3c2/C=C/C(=O)c2cc(OC)c(OC)c(OC)c2)cc1			> 100	> 100	> 100		> 100 µM		4.33					4.07	4.04	2.82		1.65	3.97	
COc1cc2c(cc1OC)C(=O)/C(=C/c1cccc(OCC(=O)c3ccccc3)c1)C2	27.8 µM	> 100 µM	> 100	> 100	> 100		90.8 µM	> 100	> 100	3.9	0.569	21.7	1.4 µM	23.8	8.17	8.07	10.2	5.79	34.2	
O=C1CC(O)C=C1Nc1ccc(Cl)cc1 (centres undefined)	> 100 µM	32.6 µM	> 100	> 100	> 100	90.9	5.14 µM	> 100	> 100											
N#CCC(=O)Nc1cccc(C(F)(F)F)c1		> 100 µM	> 100	> 100	> 100	> 100	> 100 µM	> 100	> 100											
COc1ccc2c(c1)/C(=C\c1c(C)nc3sc(C)cn13)C(=O)N2C	37 µM		32.3	61.1	31.2	> 100	10 µM	> 100	> 100	> 100	7.42		4.75 µM	4.7	3.69	1.69	9.57	9.74	4.99	0.345
COc1ccc2cc(C(=O)/C=C/c3cc(OC)c(OC)c(OC)c3)ccc2c1	> 50 µM		8.78	16.1	9.48	> 50	12.7 µM		18.5	> 50	21.9		6.84 µM	1.73	1.68	5.25		5.49	6.52	1.32
N=C1C(c2nc(-c3ccc(Br)cc3)cs2)=C(O)CN1Cc1cccnc1	84.1 µM	5.23 µM	> 100		> 100	67.2	30.6 µM	80.5		76.5	22.2	1.9	2.88 µM	26.8	22.1	6.92	11.2			17.3
COC(=O)C1CC2(CC3=C1CCCC3)OCCO2 (centres undefined)	> 100 µM	> 100 µM	> 100	> 100	> 100		> 100 µM	> 100	> 100	> 100										
CC1=C(C)C(=O)c2c(cc3ccc4ccccc4n23)C1=O		> 100 µM	> 100	> 100	> 100	> 100	> 100 µM		> 100	> 100										
CC(=O)O/C=C(/C=C/OC(C)=O)C(C/C=C(\C)C#CC=C(C)C)OC(C)=O (centres undefined)	91.3 µM	> 100 µM	> 100	98.6	> 100		77.7 µM	> 100	95.6	> 100										

SMILES	TGI (HOP-92 NSCLC)	TGI (A498 renal)	TGI (SN12C renal) [µM]	TGI (M14 melanoma) [µM]	TGI (U251 CNS) [µM]	TGI (SR leukemia) [µM]	TGI (UACC-62 melanoma)	TGI (SK-MEL-2 melanoma) [µM]	TGI (IGROV1 ovarian) [µM]	TGI (RPMI-8226 leukemia) [µM]	GI50 (HOP-92 NSCLC) [µM]	GI50 (A498 renal) [µM]	GI50 (RPMI-8226 leukemia)	GI50 (SN12C renal) [µM]	GI50 (U251 CNS) [µM]	GI50 (UACC-62 melanoma) [µM]	GI50 (SK-MEL-2 melanoma) [µM]	GI50 (IGROV1 ovarian) [µM]	GI50 (M14 melanoma) [µM]	GI50 (SR leukemia) [µM]
Cn1c(=O)nc2n(-c3ccc(Cl)cc3)c3ccc(Cl)cc3nc-2c1=O	25.1 µM	24.6 µM	27.6	21.8		58	3.09 µM	16.9	51.1											
CCOC(=O)c1c2c(n3ccc(NC(=O)CCN4CCCC4)cc13)C(=O)c1ncccc1C2=O	27.5 µM		3.47		2.82	1.39	3.22 µM	39.3	3.27	4.65	11.8		1.56 µM	1.43	1.27	1.39	18.5	1.01		
Cc1cc2c(c(C#N)c1C)NC(=O)CCC2=O		> 100 µM	> 100	> 100	> 100	> 100	> 100 µM	> 100	> 100	> 100										
COc1cc(C2C=C(c3cccc(NC(C)=O)c3)Nc3ncnn32)cc(OC)c1OC (centres undefined)	> 65.1 µM	4.67 µM	> 100	> 100	> 100		> 100 µM		> 26.5	32.5		0.242	3.35 µM	0.489	0.395	0.262		0.65	0.392	0.437
CC(=O)n1c(COS(C)(=O)=O)nc2ccccc21	> 100 µM	> 100 µM	> 100	> 100	> 100		> 100 µM	> 100	> 100											
COc1nc(N(C)O)nc(N(C)O)n1		80.5 µM	> 100		> 100	4.35	9.92 µM	> 100	> 100	> 100		7.19	1.32 µM	2.25	0.716	2.28	6.1	0.632		0.391
Cc1ccc(-[n+]2c3cc(N)c(C)cc3nc3cc(C)c(Nc4ccccc4)cc32)cc1	0.556 µM	0.438 µM		0.428			0.979 µM	0.538	1.54		0.15	0.119				0.236	0.235	0.166	0.134	
N#CCC1COc2ccccc2O1 (centres undefined)	> 10 µM		> 10	> 10	> 10	> 10	> 10 µM		> 10	> 10										
O=C(CNc1nncs1)NO	> 100 µM	> 100 µM	> 100	> 100	> 100		> 100 µM	> 100	> 100	> 100										
CCOc1ccccc1NC(=O)C(=O)CC(=O)c1c(C)n([O-])c2ccccc2[n+]1=O	> 100 µM	> 100 µM	> 100	> 100	> 100		> 100 µM	> 100	> 100	> 100										
Nc1nc(SCc2ccccn2)c2ncn(C3CCCC3)c2n1		> 100 µM	> 100	> 100	> 100	> 100	> 100 µM	> 100	> 100	> 100										
N#Cc1c(Sc2ccccc2N)cccc1Sc1ccccc1N											31		28.8 µM	42.1	35.6	14.7		50.9	62.6	56.8
Cn1c2c(c3ccccc31)CCN(CCCCN1CCc3c(n(C)c4ccccc34)C1=O)C2	> 100 µM	> 100 µM	> 100	> 100	> 100		> 100 µM	> 100	> 100	> 100										
Cc1cnc2c(C)ccc([N+](=O)[O-])c2c1NCCCN(C)C			> 100	> 100	> 100	> 100		> 100	> 100	> 100										
Cc1cc(C)nc(NS(=O)(=O)c2ccc(Nc3c4ccccc4nc4c(C(=O)Nc5ccc(S(=O)(=O)N=C(N)N)cc5)ccc(Cl)c34)cc2)n1		> 100 µM	80.9	> 100	34.6	65.4	36.9 µM			80.1										
Nc1ccn(CCOC(=O)c2ccccc2)c(=O)n1	> 100 µM	> 100 µM	> 100	> 100	> 100		> 100 µM	> 100	> 100	> 100										
C=C1C(=O)O[C@H]2[C@H]1CC/C(Cn1cc(CNC(=O)Cc3cn(C(=O)c4ccc(Cl)cc4)c4ccc(OC)cc34)nn1)=C\CC[C@@]1(C)O[C@@H]21	2.65 µM	8.24 µM	3.21	3.28	3.55		3.18 µM	4.18	3.32	5.21	1.21	2.51	1.59 µM	1.62	1.89	1.63	2.01	1.71	1.65	
COc1cc(CCc2ccc(OCCN(C)C)cc2)cc(OC)c1OC	> 100 µM	> 100 µM	> 100	> 100	> 100	> 100	> 100 µM		> 100	> 100										
O=[N+]([O-])c1ccc(C(c2c[nH]c3ccccc23)c2c[nH]c3ccccc23)cc1		30.1 µM	35.2	33.2	45.3	22.5	26.5 µM	20.1		13.4										
O=C(O)c1c(-c2cccc3ccccc23)sc(-c2cccc3ccccc23)c1C(=O)O	> 100 µM		> 100	> 100	> 100	> 100	> 100 µM	> 100	> 100	> 100										
